Source: ChEMBL document CHEMBL5537196, “Discovery of KIN-3248, An Irreversible, Next Generation FGFR Inhibitor for the Treatment of Advanced Tumors Harboring FGFR2 and/or FGFR3 Gene Alterations” (J Med Chem, 2024)
One block for each compound: values may come before it.

Columns and labels:
CC-LP-1 [1] = assay: Antiproliferative activity against human CC-LP-1 cells expressing FGFR2 N550K mutant assessed as inhibition of cell growth incubated for 3 days by Cell-titer glo assay; conditions: CC-LP-1, 72 h
RT-112 [2] = assay: Antiproliferative activity against human RT-112 cells assessed as inhibition of cell growth incubated for 5 days by Cell-titer glo assay; conditions: RT-112, 120 h
SNU-16 = assay: Antiproliferative activity against human SNU-16 cells assessed as inhibition of cell growth incubated for 5 days by Cell-titer glo assay; conditions: SNU-16, 120 h
CC-LP-1 [3] = assay: Antiproliferative activity against human CC-LP-1 cells assessed as inhibition of cell growth incubated for 3 days by Cell-titer glo assay; conditions: CC-LP-1, 72 h
[4] = Antiproliferative activity against human ICC13-7 cells expressing FGFR2 V565F mutant assessed as inhibition of cell growth incubated for 10 days by Cell-titer glo assay; conditions: ICC13-7, 240 h
RT-112 [5] = assay: Antiproliferative activity against human RT-112 cells expressing FGFR3 N540K mutant assessed as inhibition of cell growth incubated for 5 days by Cell-titer glo assay; conditions: RT-112, 120 h
[6] = Antitumor activity against patient derived STO357 PDX cells xenografted in mouse assessed as tumor growth inhibition at 6 mg/kg,po administrated once daily for 3 weeks relative to control; conditions: Homo sapiens, 504 h, read-out: TGI
RT-112 [7] = assay: Antiproliferative activity against human RT-112 cells expressing FGFR3 K650M mutant assessed as inhibition of cell growth incubated for 5 days by Cell-titer glo assay; conditions: RT-112, 120 h
[8] = Antiproliferative activity against human ICC13-7 cells assessed as inhibition of cell growth incubated for 3 days by Cell-titer glo assay; conditions: ICC13-7, 72 h
[9] = Antiproliferative activity against human ICC13-7 cells expressing FGFR2 N550K mutant assessed as inhibition of cell growth incubated for 10 days by Cell-titer glo assay; conditions: ICC13-7, 240 h
RT-112 [10] = assay: Antiproliferative activity against human RT-112 cells expressing FGFR3 V555M mutant assessed as inhibition of cell growth incubated for 5 days by Cell-titer glo assay; conditions: RT-112, 120 h
CC-LP-1 [11] = assay: Antiproliferative activity against human CC-LP-1 cells expressing FGFR2 V565F mutant assessed as inhibition of cell growth incubated for 3 days by Cell-titer glo assay; conditions: CC-LP-1, 72 h
RT-112 [12] = assay: Antiproliferative activity against human RT-112 cells expressing FGFR3 assessed as inhibition of cell growth incubated for 5 days by Cell-titer glo assay; conditions: RT-112, 120 h
CC-LP-1 [13] = assay: Antiproliferative activity against human CC-LP-1 cells expressing FGFR2 N550H mutant assessed as inhibition of cell growth incubated for 3 days by Cell-titer glo assay; type: functional, cell-based; conditions: CC-LP-1, 72 h
[14] = Total clearance in Sprague-Dawley rat at 5 mg/kg,iv administrated at 0.25 to 24 hrs by LC-MS/MS analysis; type: ADME, organism-based; conditions: in vivo, time 0.25-24 hrs
[15] = Oral bioavailability in Sprague-Dawley rat at 15 mg/kg administrated at 0.25 to 24 hrs by LC-MS/MS analysis; type: ADME, organism-based; conditions: in vivo, time 0.25-24 hrs
[16] = Intrinsic clearance in human liver microsomes; type: ADME, Microsome; conditions: read-out: CLH
[17] = Cmax in Sprague-Dawley rat at 15 mg/kg,po administrated at 0.25 to 24 hrs by LC-MS/MS analysis; type: ADME, organism-based; conditions: in vivo, time 0.25-24 hrs
[18] = Half life in Sprague-Dawley rat at 5 mg/kg,iv administrated at 0.25 to 24 hrs by LC-MS/MS analysis; type: ADME, organism-based; conditions: in vivo, time 0.25-24 hrs
[19] = AUC (0 to 24 hrs) in Beagle dog at 10 mg/kg,po administrated at 0.25 to 24 hrs by LC-MS/MS analysis; type: ADME, organism-based, Canis lupus familiaris; conditions: in vivo, time 0.25-24 hrs
[20] = Cmax in Beagle dog at 10 mg/kg,po administrated at 0.25 to 24 hrs by LC-MS/MS analysis; type: ADME, organism-based, Canis lupus familiaris; conditions: in vivo, time 0.25-24 hrs
[21] = Intrinsic clearance in human hepatocyte measured per 10^6 cells; type: ADME, cell-based; conditions: hepatocytes, read-out: CLH
[22] = AUC (0 to 24 hrs) in Sprague-Dawley rat at 15 mg/kg,po administrated at 0.25 to 24 hrs by LC-MS/MS analysis; type: ADME, organism-based; conditions: in vivo, time 0.25-24 hrs
[23] = Oral bioavailability in Beagle dog at 10 mg/kg administrated at 0.25 to 24 hrs by LC-MS/MS analysis; type: ADME, organism-based, Canis lupus familiaris; conditions: in vivo, time 0.25-24 hrs
[24] = Total clearance in Beagle dog at 5 mg/kg,iv administrated at 0.25 to 24 hrs by LC-MS/MS analysis; type: ADME, organism-based, Canis lupus familiaris; conditions: in vivo, time 0.25-24 hrs
[25] = Half life in Beagle dog at 5 mg/kg,iv administrated at 0.25 to 24 hrs by LC-MS/MS analysis; type: ADME, organism-based, Canis lupus familiaris; conditions: in vivo, time 0.25-24 hrs
[26] = Antitumor activity against patient derived STO357 PDX cells xenografted in mouse assessed as tumor growth inhibition at 1 mg/kg,po administrated once daily for 3 weeks relative to control; type: functional; conditions: Homo sapiens, 504 h, read-out: TGI
[27] = Oral bioavailability in Beagle dog at 15 mg/kg administrated at 0.25 to 24 hrs by LC-MS/MS analysis; type: ADME, organism-based, Canis lupus familiaris; conditions: in vivo, time 0.25-24 hrs
[28] = Cmax in Beagle dog at 15 mg/kg,po administrated at 0.25 to 24 hrs by LC-MS/MS analysis; type: ADME, organism-based, Canis lupus familiaris; conditions: in vivo, time 0.25-24 hrs
[29] = AUC (0 to 24 hrs) in Beagle dog at 15 mg/kg,po administrated at 0.25 to 24 hrs by LC-MS/MS analysis; type: ADME, organism-based, Canis lupus familiaris; conditions: in vivo, time 0.25-24 hrs

SMILES: C=CC(=O)N1CC[C@H](n2nc(C#Cc3cc(OC)cc(OC)c3)c3c(N)ncnc32)C1 [FUTIBATINIB]
IC50 (CC-LP-1 [1]): 5.5 nM | IC50 (RT-112 [2]): 6.7 nM | IC50 (SNU-16): 4.7 nM | IC50 (CC-LP-1 [3]): 1.3 nM | IC50 [4]: 143 nM | IC50 (RT-112 [5]): 73.4 nM | inhibition in vivo at 6 mg/kg [6]: 48% | IC50 (RT-112 [7]): 74.3 nM | IC50 [8]: 1.8 nM | IC50 [9]: 13.8 nM | IC50 (RT-112 [10]): 390 nM | IC50 (CC-LP-1 [11]): 105 nM | IC50 (RT-112 [12]): 19.6 nM | IC50 (CC-LP-1 [13]): 1.4 nM

SMILES: C=CC(=O)N1C[C@@H](n2nc(C#Cc3ccc4c(c3)ncn4C3CC3)c(C(N)=O)c2NC)C[C@@H]1COC
clearance [14]: 26.1 mL/min/kg | bioavailability [15]: 31.4% | microsomal CLint [16]: 47.4 µL/min/mg | Cmax [17]: 1720 ng/mL | half-life [18]: 4.88 h | AUC(0-t) [19]: 312 ng·h/mL | Cmax [20]: 124 ng/mL | hepatocyte CLint [21]: 6.6 µL/min/1e6 cells | AUC(0-t) [22]: 3020 ng·h/mL | bioavailability [23]: 4.6% | clearance [24]: 31.1 mL/min/kg | half-life [25]: 6.46 h

SMILES: COc1cc(OC)cc(N(CCNC(C)C)c2ccc3ncc(-c4cnn(C)c4)nc3c2)c1 [ERDAFITINIB]
IC50 (CC-LP-1 [1]): 94.8 nM | IC50 (RT-112 [2]): 1.3 nM | IC50 (SNU-16): 2.7 nM | IC50 (CC-LP-1 [3]): 2.3 nM | IC50 [4]: > 2800 nM | IC50 (RT-112 [5]): 107 nM | IC50 (RT-112 [7]): 39 nM | IC50 [8]: 1.1 nM | IC50 [9]: 131 nM | IC50 (RT-112 [10]): 603 nM | IC50 (CC-LP-1 [11]): 1370 nM | IC50 (RT-112 [12]): 2.4 nM | IC50 (CC-LP-1 [13]): 10.8 nM

SMILES: C=CC(=O)N1C[C@@H](n2nc(C#Cc3cc4ncn(C5CC5)c4cc3Cl)c(C(N)=O)c2NC)C[C@@H]1COC
IC50 (CC-LP-1 [1]): 6.5 nM | IC50 (RT-112 [2]): 7.2 nM | IC50 (SNU-16): 6 nM | IC50 (CC-LP-1 [3]): 4.3 nM | IC50 [4]: 0.9 nM | IC50 (RT-112 [5]): 26.3 nM | clearance [14]: 26.8 mL/min/kg | bioavailability [15]: 16.4% | microsomal CLint [16]: 106 µL/min/mg | Cmax [17]: 519 ng/mL | half-life [18]: 6.17 h | IC50 (RT-112 [7]): 12.8 nM | AUC(0-t) [19]: 498 ng·h/mL | Cmax [20]: 289 ng/mL | hepatocyte CLint [21]: 14.4 µL/min/1e6 cells | AUC(0-t) [22]: 1500 ng·h/mL | bioavailability [23]: 13.1% | IC50 [8]: 2.2 nM | IC50 [9]: 6.1 nM | IC50 (RT-112 [10]): 19.5 nM | IC50 (CC-LP-1 [11]): 1.8 nM | IC50 (RT-112 [12]): 11.2 nM | clearance [24]: 44.4 mL/min/kg | half-life [25]: 4.94 h

Second part, led by results:

IC50 (SNU-16): 12.4 nM
SMILES: CCN1CCN(c2ccc(Nc3cc(N(C)C(=O)Nc4c(Cl)c(OC)cc(OC)c4Cl)ncn3)cc2)CC1 [INFIGRATINIB]
IC50 (CC-LP-1 [1]): 432 nM | IC50 (RT-112 [2]): 6.2 nM | IC50 (CC-LP-1 [3]): 7.3 nM | IC50 [4]: > 1890 nM | IC50 (RT-112 [5]): 777 nM | IC50 (RT-112 [7]): 218 nM | IC50 [8]: 7.6 nM | IC50 [9]: 352 nM | IC50 (RT-112 [10]): 352 nM | IC50 (CC-LP-1 [11]): > 2280 nM | IC50 (RT-112 [12]): 10 nM | IC50 (CC-LP-1 [13]): 28.8 nM

IC50 (SNU-16): 3.9 nM
SMILES: CCN1C(=O)N(c2c(F)c(OC)cc(OC)c2F)Cc2cnc3[nH]c(CN4CCOCC4)cc3c21 [PEMIGATINIB]
IC50 (CC-LP-1 [1]): 493 nM | IC50 (RT-112 [2]): 3.3 nM | IC50 (CC-LP-1 [3]): 3.6 nM | IC50 [4]: > 2350 nM | IC50 (RT-112 [5]): 1880 nM | IC50 (RT-112 [7]): 174 nM | inhibition in vivo at 1 mg/kg [26]: 57% | IC50 [8]: 2.6 nM | IC50 [9]: 416 nM | IC50 (RT-112 [10]): > 1150 nM | IC50 (CC-LP-1 [11]): 1630 nM | IC50 (RT-112 [12]): 6 nM | IC50 (CC-LP-1 [13]): 48.7 nM

IC50 (SNU-16): 4 nM | bioavailability [27]: 23.5% | clearance [14]: 25 mL/min/kg | Cmax [28]: 770 ng/mL | AUC(0-t) [29]: 1700 ng·h/mL | bioavailability [15]: 27% | microsomal CLint [16]: 97.1 µL/min/mg | Cmax [17]: 760 ng/mL | half-life [18]: 8.85 h | hepatocyte CLint [21]: 12 µL/min/1e6 cells | AUC(0-t) [22]: 2620 ng·h/mL | clearance [24]: 31.8 mL/min/kg | half-life [25]: 11.4 h
SMILES: C=CC(=O)N1C[C@@H](n2nc(C#Cc3cc4ncn(C5CC5)c4cc3F)c(C(N)=O)c2NC)C[C@@H]1COC
IC50 (CC-LP-1 [1]): 3.6 nM | IC50 (CC-LP-1 [3]): 2.3 nM | IC50 [4]: 1.4 nM | IC50 [8]: 1.4 nM | IC50 [9]: 3.5 nM | IC50 (CC-LP-1 [11]): 1.5 nM
